Laboratory results from patent US12655379B2, “Device for evaluation of chemical substance and method for evaluation of chemical substance” (SHINKO CHEMICAL CO., LTD., priority 2017, dated 2026).

What was measured:
HepG2-CYP3A4 cells = experiment: Perfusion test of first pass effect, liver compartment (HepG2-CYP3A4 cells downstream of Caco-2 insert); details: 240 μL of 62.5 μg/mL substrate solution in insert, HBSS perfusion, sampled every 30 minutes for 180 minutes, LC-MS-MS, FIG. 20
Description: (§1) In the present example, small intestine epithelial cells and liver cells were disseminated in separate compartments, and a first pass effect of a chemical substance was evaluated by using a device in which the respective compartments were connected via a flow path system. In the device described with reference to FIG. 1, Caco-2 cells were disseminated as model cells of the small intestine epithelial cells, and HepG2-CYP3A4 cells obtained by a genetic manipulation to excessively develop CYP3A4 in HepG2 cells were disseminated as model cells of the liver cells. Thus, the first pass effects (absorption and metabolism) of the chemical substance on two types of cells (the small intestine epithelial cells and the liver cells) were simultaneously evaluated.
(§2) • a) Caco-2 Cell • i) 0.4 mL of cell suspension was added to an inner side (an apical side) of a porous membrane filter at a density of 0.5 to 5×10^5 cells/cm^2 (e.g., 0.6×10^5 cells/cm^2). • ii) 0.8 mL of medium was added to an outer side (a basal side) of the porous membrane filter. • iii) The cells were cultured in a carbon dioxide gas incubator (5% of CO2 at 37° C. under humidification conditions) for about 3 weeks. An apical-side medium and a basal-side medium were appropriately changed.
(§3) Prior to use in a test, an electric resistance of a single layer film was measured by using an electric resistance measuring device.

Caco-2 cells = experiment: Perfusion test of first pass effect, small intestine compartment (Caco-2 single layer film in insert); details: 240 μL of 62.5 μg/mL substrate solution in insert, HBSS perfusion, sampled every 30 minutes for 180 minutes, LC-MS-MS, FIG. 19
Description: as §1, §2, §3

## Cc1ncc2n1-c1ccc(Cl)cc1C(c1ccccc1F)=NC2 [midazolam, Midazolam]
HepG2-CYP3A4 cells
  permeation amount of midazolam: successive increase
Caco-2 cells
  permeation amount of midazolam permeated through the Caco-2 single layer film: successive increase
